Data set [1] can be described thus: Odour description on paper blotter. The conditions noted are these: 1% solution in EtOH on paper blotter, 24 h.
A short description of data set [2]: Biodegradability, manometric respirometry test (OECD 301F). Conditions: pass level 60% oxygen consumption of theory. The text has this: The results of the biodegradability assessment by the manometric respirometry test (OECD guideline for the testing of materials No. 301F, Paris 1992) are summarized in Table 6.
A compound can be classified biodegradable, if it reaches the pass level of 60% oxygen consumption of theory required for complete mineralization.
It is readily biodegradable, if the pass level is reached within 10 days within the 28-day period of the test. The 10-day window begins when the degree of biodegradation has reached 10%. If the pass level is obtained after 28-day period of the test, the compound can be classified as inherently biodegradable.

Data set [3] in a line: Colour stability in liquid detergent base (visual inspection). The data set is classed as physicochemical. The conditions noted are these: 0.2% by weight in unperfumed liquid detergent base, compared to unperfumed base. The text has this:
The above prepared samples were visually inspected in comparison to an unperfumed base sample (sample C).

Data set [4] is described as follows: Application in shampoo base: sensory evaluation of washed hair swatches by expert panel. On the set-up: species or system human. Conditions: Table 4; for odour on dry hair / odour intensity, wet: 0.2% by weight in shampoo base; for odour intensity, wet: wet hair swatch, scale 0 (odourless) to 5 (extremely strong); for odour intensity, 1 day: dried hair swatch 1 day; for odour intensity, 1 day / odour intensity, 3 days: scale 0 to 5; for odour intensity, 3 days: dried hair swatch 3 days. The procedure:
Odour-neutral human hair swatches were wetted with warm tap water and lathered delicately with 2 mL of the above hair shampoo samples for 30 sec by hand wearing gloves. The lathered hair swatches were left in a plastic bowl for 2 min, then rinsed under running tap water for 20 sec. After removing excess water by squeezing the hair swatches between two fingers, they were left to dry in open air. The wet and dried hair swatches (1 and 3 days) were assessed by a panel of 4-6 experts with regard to odour intensity and quality. The odour intensity was recorded on an intensity scale of 0 (odourless) to 5 (extremely strong).

A short description of data set [5]: Washtest with liquid detergent and sensory evaluation of fabric by expert panel. The conditions noted are these: for odour released on dry fabric: comparison of double bond position Δ-2, Δ-3, Δ-4. The procedure: The wet and line-dried fabric (1 and 4 days) was assessed by a panel of 4-6 experts with regard to odour intensity and quality. The odour intensity was recorded on an intensity scale of 0 (odourless) to 5 (extremely strong).
The odour intensity was recorded on an intensity scale of 0 (odorless) to 5 (extremely strong).
Heavy duty liquid detergent samples were prepared and used in washtests and subsequent sensory evaluation of the washed and dried fabric as described in Example 60a and c. The odour intensity was recorded on an intensity scale of 0 (odourless) to 5 (extremely strong).

Assay in data set [6]: as above
The conditions noted are these: Table 2; dry fabric 3 days; scale 0 to 5.

[7] abbreviates: Table 3, dry fabric 1 day, scale 0 to 5.
Setting [8] is: Table 3, dry fabric 4 days, scale 0 to 5.
Setting [9] is: Table 3, heavy duty liquid detergent washtest, wet fabric, scale 0 to 5.
Setting [10] is: Table 2, dry fabric 1 day, scale 0 to 5.
Setting [11] is: Table 2, liquid detergent washtest.
Setting [12] is: Table 2, liquid detergent washtest, wet fabric, scale 0 (odorless) to 5 (extremely strong).

Entries after “also recorded” stand apart in the source; their conditions may differ.

Turning to `CC/C=C/CC(CCCCCCCCC)Oc1ccc(C=O)cc1OCC` (centres unmarked) [Example 29, (E)-3-ethoxy-4-(pentadec-3-en-6-yloxy)benzaldehyde], the Odour description entry in data set [1] is reported as “powdery, creamy, vanilla, aldehydic, mandarin”. In data set [2], this molecule registered a Biodegradation in % of 70%.
Take `CC/C=C\CC(CCCCCCCCC)Oc1ccc(C=O)cc1OCC` (centres unmarked) [Example 28, (Z)-3-ethoxy-4-(Pentadec-3-en-6-yloxy)benzaldehyde]: in data set [3], the “Colour of liquid detergent sample (visual inspection)” value was “optically identical to the unperfumed base”. In addition, the “odour on dry hair” value in data set [4] was “mandarin, vanilla”. Further, the “odour intensity, wet” value in data set [4] is reported as 1.7; in data set [5] (Table 1, liquid detergent 0.2% by weight, 40° C. machine wash, cotton/elastan fabric, wet, scale 0 (odourless) to 5 (extremely strong)) it was 2.1; in data set [5] (setting [9]), 2.1. The “odour intensity, 1 day” value in data set [4] turned out to be 3.5; in data set [5] (Table 1, line-dried fabric 1 day, scale 0 to 5) it was 2.3; in data set [5] (setting [7]) it was 2.3. In addition, in data set [4], the “odour intensity, 3 days” value was 4.4. Also, the Odour description result in data set [1] is given as “powdery, creamy, vanilla, aldehydic, mandarin”. The “odour intensity, 4 days” value in data set [5] (Table 1, line-dried fabric 4 days, scale 0 to 5) turned out to be 2.6; in data set [5] (setting [8]), 2.6. Besides, in data set [5] (liquid detergent washtest, dry fabric), the “odour released from washed fabric” value is “mandarin, vanilla and powdery fragrance”.
Consider `CCCCCC[C@@H](C/C=C\CCCCCCCC(=O)OC)Oc1ccc(C=O)cc1OCC` [Example 1, methyl (S,Z)-12-(2-ethoxy-4-formylphenoxy)octadec-9-enoate], for which, in data set [1], the Odour description entry is on record as “powdery, vanillin, green, fatty”. The molecule further came in with a Biodegradation in % in data set [2] of 90%.
Take `CC/C=C\CC(CCCCC)Oc1ccc(C=O)cc1OCC` (centres unmarked) [Example 17, (Z)-3-ethoxy-4-(undec-3-en-6-yloxy)benzaldehyde]: the Odour description result in data set [1] is recorded as “powdery (dry, vanilla, chocolate)”. This molecule also had a Biodegradation in % in data set [2] of 86%.
`CC/C=C\CCC(CCCCCCCCC)Oc1ccc(C=O)cc1OCC` (centres unmarked) [(Z)-3-ethoxy-4-(hexadec-3-en-7-yloxy)benzaldehyde, reference compound]: the “odour intensity, 3 days” value in data set [6] is given as 1.6. Moreover, in data set [5] (setting [10]), the “odour intensity, 1 day” value is listed as 1.2. In data set [5] (setting [11]), the “odour on dry fabric” value was “rubbery, metallic”. Further, the “odour intensity, wet” value in data set [5] (setting [12]) is 1.1. Besides, in data set [5], the “odour released on dry fabric” value was “weak and unpleasant odours”.
Turning to `CCCCCC(C)=CCCOc1ccc(C=O)cc1OCC` [Example 42, 3-ethoxy-4-((4-methylnon-3-en-1-yl)oxy)benzaldehyde], in data set [4], the “odour on dry hair” value is reported as “vanilla, sweet”; the “odour intensity, wet” value came to 1.0; the “odour intensity, 1 day” value is reported as 1.4; the “odour intensity, 3 days” value was 1.9. For the same molecule, the Odour description result in data set [1] is reported as “powdery, vanilla, sweet, sugary”. For the same molecule, the “odour intensity, 1 day” value in data set [5] (setting [7]) worked out at 2.8. Besides, in data set [5] (setting [8]), the “odour intensity, 4 days” value came to 3.3. The “odour intensity, wet” value in data set [5] (setting [9]) is 2.1.
As for `CC/C=C\C/C=C\CCOc1ccc(C=O)cc1OCC` [Example 30, 3-ethoxy-4-(((3Z,6Z)-nona-3,6-dien-1-yl)oxy)benzaldehyde], in data set [1], the Odour description result is on record as “green, leaf aldehyde, green apple, powdery, vanilla”. For the same molecule, the “odour intensity, 3 days” value in data set [6] is reported as 4.1. The “odour intensity, 1 day” value in data set [5] (setting [10]) and in data set [5] (setting [7]) was 3.4 throughout. For the same molecule, the “odour on dry fabric” value in data set [5] (setting [11]) was “vanilla, green”. For the same molecule, the “odour intensity, wet” value in data set [5] (setting [12]) and in data set [5] (setting [9]) was 2.7 each time. For the same molecule, the “odour intensity, 4 days” value in data set [5] (setting [8]) worked out at 4.1. In data set [5], the “odour released on dry fabric” value is “strong and pleasant odour”.
`CCCCCC[C@@H](C/C=C\CCCCCCCC(=O)OC)Oc1ccc(CCC(C)=O)cc1` [Example 2, methyl (S,Z)-12-(4-(3-oxobutyl)phenoxy)octadec-9-enoate]: in data set [1], the Odour description result is reported as “powdery fruity raspberry, green, fatty”. The Biodegradation in % in data set [2] stood at 88%.
As to `CCOc1cc(C=O)ccc1O` [ethylvanillin, 3-ethoxy-4-hydroxybenzaldehyde], the “Colour of liquid detergent sample (visual inspection)” value in data set [3] is “strong purple coloration; also recorded: colors the base”.
Turning to `CCOc1cc(C=O)ccc1OCCC=C(C)CCc1ccccc1` [Example 47, 3-ethoxy-4-((4-methyl-6-phenylhex-3-en-1-yl)oxy)benzaldehyde], in data set [4], the “odour intensity, wet” value was 1.4; the “odour intensity, 1 day” value is on record as 2.7; the “odour intensity, 3 days” value is on record as 2.1. In data set [1], the Odour description result is “sweet, vanilla, ice cream, powdery, fruity, raspberry, sorbet”. The “odour intensity, 1 day” value in data set [5] (setting [7]) is on record as 2.7. Also, the “odour intensity, 4 days” value in data set [5] (setting [8]) turned out to be 3.0. Moreover, the “odour intensity, wet” value in data set [5] (setting [9]) is recorded as 1.5.
Regarding `CC/C=C\C/C=C\COc1ccc(C=O)cc1OCC` [3-ethoxy-4-(((2Z,5Z)-octa-2,5-dien-1-yl)oxy)benzaldehyde, reference compound], the “odour intensity, 3 days” value in data set [6] is 2.3. In data set [5] (setting [10]), the “odour intensity, 1 day” value was 2.8. Further, in data set [5] (setting [11]), the “odour on dry fabric” value was “metallic”. The “odour intensity, wet” value in data set [5] (setting [12]) is recorded as 0.9. The “odour released on dry fabric” value in data set [5] was “weak and unpleasant odours”.
